Laboratory results published in US8865967B2 (priority 2010, dated 2014).

Key:
Format in all cases: cell-based
Diplodia maydis (DMA) = conditions: for IC50 (ppm) High Salt Dma: high salt: 1/2x liquid media plus 1 mM calcium chloride, 50 mM potassium chloride; for IC50 (ppm) Low Salt Dma: low salt: 1/8x potato dextrose broth plus 0.25 mM calcium chloride, 12.5 mM potassium chloride
[1] = system: Fusarium graminearum (FGR; isolate 73B ISU); conditions: for IC50 (ppm) High Salt Fgr: high salt: 1/2x liquid media plus 1 mM calcium chloride, 50 mM potassium chloride; for IC50 (ppm) Low Salt Fgr: low salt: 1/8x potato dextrose broth plus 0.25 mM calcium chloride, 12.5 mM potassium chloride
[2] = system: Fusarium verticillioides (FVE)
[3] = system: Colletotrichum graminicola (CGR; isolate Carroll-IA-99); conditions: for IC50 (ppm) High Salt Cgr: high salt: 1/2x liquid media plus 1 mM calcium chloride, 50 mM potassium chloride, Table 1; for IC50 (ppm) Low Salt Cgr: low salt: 1/8x Czapek-Dox broth plus 0.25 mM calcium chloride, 12.5 mM potassium chloride; for Antifungal activity (IC50 in ppm) against C. graminicola under high salt conditions: Table 2

Substance	IC50 (ppm) High Salt Dma (Diplodia maydis (DMA)) [ppm]	IC50 (ppm) Low Salt Dma (Diplodia maydis (DMA)) [ppm]	IC50 (ppm) High Salt Fgr [1]	IC50 (ppm) Low Salt Fgr [1] [ppm]	IC50 (ppm) High Salt Fve [2] [ppm]	IC50 (ppm) Low Salt Fve [2] [ppm]	IC50 (ppm) High Salt Cgr [3] [ppm]	IC50 (ppm) Low Salt Cgr [3] [ppm]	Antifungal activity (IC50 in ppm) against C. graminicola under high salt conditions [3] [ppm]
Pp-PDF1-3CA-1A2: Pp-PDF1 variant from third shuffling round (RVCTKPSKFYRGLCVSDRDCTHACRKEGLPTGFCQSKGFFNSVCVCKKPC; Synthetic sequence obtained from DNA shuffling of a plant sequence.)	50	15	^~100 ppm	15	200	30	0.6	3	
Pp-PDF1 2CA 5H4: Pp-PDF1 variant from second shuffling round (RVCKKPSKFFKGLCLSDRDCTNACRKEGLATGECQSKGFFNSVCVCEKPC; Synthetic sequence obtained from DNA shuffling of a plant sequence.)							1		
PP-PDF1-2CF-10F3: Pp-PDF1 variant from second shuffling round (RVCTKPSKFFRGLCVSDRNCTNACRKEGLPTGECKSKGFFNSVCVCKKPC; Synthetic sequence obtained from DNA shuffling of a plant sequence.)	25	15	100 ppm	15	200	30	0.6	1.5	
Pp-PDF1 (4B11): Pp-PDF1 variant identified by DNA shuffling (RVCTKPSKFFKGMCVSDNNCTHACRKEGLPTGFCQSKGFFNSVCVCKKPC; Synthetic sequence obtained from DNA shuffling of a plant sequence.)	12.5		>200 ppm		>200		0.8		1
Pp-PDF1 (C2B5): Pp-PDF1 variant identified by DNA shuffling (RVCEKPSKFFKGMCVSDRNCTNACRKEGLPTGFCQSKGFFNSVCVCKKPC; Synthetic sequence obtained from DNA shuffling of a plant sequence.)									0.8
Pp-PDF1-2CA-1A6: Pp-PDF1 variant from second shuffling round (RVCKKPSKFFKGLCLSDRDCTNACRKEGLATGECQSKGFFNSVCVCRKPC; Synthetic sequence obtained from DNA shuffling of a plant sequence.)							1		
Pp-PDF1-3CA-1 E6: Pp-PDF1 variant from third shuffling round (RVCTKPSKFYRGLCVSDRDCTNACRKEGLPTGFCQSKGFFNSVCVCKKPC; Synthetic sequence obtained from DNA shuffling of a plant sequence.)			^~100 ppm				0.6		
Pp-PDF1-1C-6D3: Pp-PDF1 variant from first shuffling round (RVCEKPSKFFKGLCVRDRDCAVACKKEGLASGFCQSKGFFNSVCVCKKPC; Synthetic sequence obtained from DNA shuffling of a plant sequence.)				4.5			12	0.6	
Pp-PDF1-2CA-1H4: Pp-PDF1 variant from second shuffling round (RVCRKPSKFFKGLCLSDRDCTNACRKEGLATGECQSKGFFNSVCVCEKPC; Synthetic sequence obtained from DNA shuffling of a plant sequence.)							1		
